Measured values taken from the supplement of paper PMC4862054.

Tests used:
HDQ-P1 [1] = test: normalised viability (% of control), CellTiter-Blue; higher = more viable cells (about 100 = DMSO control); conditions: 10 nM; incubation time: 72 h
Protocol: (§1)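 DSRT, CellTiter-Blue viability, 72 h incubation. Signal is normalised to DMSO and benzethonium chloride controls. Value is the normalised response at dose 3.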

Hs578T [2] = test: as above; conditions: 100 nM; incubation time: 72 h
Protocol: as §1

MDA-MB-453 [3] = test: as above; conditions: 10 nM; incubation time: 72 h
Protocol: as §1

CAL-148 [4] = test: as above; conditions: 10 nM; incubation time: 72 h
Protocol: as §1

CAL-85-1 [5] = test: as above; conditions: 10 nM; incubation time: 72 h
Protocol: as §1

MDA-MB-468 [6] = test: as above; conditions: 100 nM; incubation time: 72 h
Protocol: as §1

BT-549 [7] = test: as above; conditions: 100 nM; incubation time: 72 h
Protocol: as §1

SK-BR-3 [8] = test: as above; conditions: 100 nM; incubation time: 72 h
Protocol: as §1

MDA-MB-436 [9] = test: as above; conditions: 100 nM; incubation time: 72 h
Protocol: as §1

DU-4475 [10] = test: as above; conditions: 10 nM; incubation time: 72 h
Protocol: as §1

CAL-120 [11] = test: as above; conditions: 100 nM; incubation time: 72 h
Protocol: as §1

HCC1599 [12] = test: as above; conditions: 100 nM; incubation time: 72 h
Protocol: as §1

MFM-223 [13] = test: as above; conditions: 100 nM; incubation time: 72 h
Protocol: as §1

HCC1937 [14] = test: as above; conditions: 100 nM; incubation time: 72 h
Protocol: as §1

HCC1143 [15] = test: as above; conditions: 100 nM; incubation time: 72 h
Protocol: as §1

MDA-MB-231 [16] = test: as above; conditions: 100 nM; incubation time: 72 h
Protocol: as §1

BT-474 [17] = test: as above; conditions: 100 nM; incubation time: 72 h
Protocol: as §1

CAL-51 [18] = test: as above; conditions: 10 nM; incubation time: 72 h
Protocol: as §1

HDQ-P1 [19] = test: normalised viability (% of control), CellTiter-Blue; higher = more viable cells (about 100 = DMSO control); conditions: incubation time: 72 h
Method in brief: (§2)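 Each value is normalised viability at a single listed concentration of the series. Breast cancer cell lines in 384-well plates were incubated 72 h with compound and read by CellTiter-Blue fluorescence at 560/590 nm, with vehicle set to 100 and a positive kill control to 0 on every plate.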

Hs578T [20] = test: as above; conditions: incubation time: 72 h
Method in brief: as §2

MDA-MB-453 [21] = test: as above; conditions: incubation time: 72 h
Method in brief: as §2

CAL-148 [22] = test: as above; conditions: incubation time: 72 h
Method in brief: as §2

CAL-85-1 [23] = test: as above; conditions: incubation time: 72 h
Method in brief: as §2

MDA-MB-468 [24] = test: as above; conditions: incubation time: 72 h
Method in brief: as §2

BT-549 [25] = test: as above; conditions: incubation time: 72 h
Method in brief: as §2

SK-BR-3 [26] = test: as above; conditions: incubation time: 72 h
Method in brief: as §2

MDA-MB-436 [27] = test: as above; conditions: incubation time: 72 h
Method in brief: as §2

DU-4475 [28] = test: as above; conditions: incubation time: 72 h
Method in brief: as §2

CAL-120 [29] = test: as above; conditions: incubation time: 72 h
Method in brief: as §2

HCC1599 [30] = test: as above; conditions: incubation time: 72 h
Method in brief: as §2

MFM-223 [31] = test: as above; conditions: incubation time: 72 h
Method in brief: as §2

HCC1937 [32] = test: as above; conditions: incubation time: 72 h
Method in brief: as §2

HCC1143 [33] = test: as above; conditions: incubation time: 72 h
Method in brief: as §2

MDA-MB-231 [34] = test: as above; conditions: incubation time: 72 h
Method in brief: as §2

BT-474 [35] = test: as above; conditions: incubation time: 72 h
Method in brief: as §2

CAL-51 [36] = test: as above; conditions: incubation time: 72 h
Method in brief: as §2

HDQ-P1 [37] = test: normalised viability (% of control), CellTiter-Blue; higher = more viable cells (100 = DMSO, 0 = benzethonium chloride kill control); conditions: incubation time: 72 h
Protocol: (§3)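 DSRT, CellTiter-Blue viability, 72 h incubation. Signal is normalised to DMSO and benzethonium chloride controls. Value is the normalised response at dose 1.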

Hs578T [38] = test: as above; conditions: incubation time: 72 h
Protocol: as §3

MDA-MB-453 [39] = test: as above; conditions: incubation time: 72 h
Protocol: as §3

CAL-148 [40] = test: as above; conditions: incubation time: 72 h
Protocol: as §3

CAL-85-1 [41] = test: as above; conditions: incubation time: 72 h
Protocol: as §3

MDA-MB-468 [42] = test: as above; conditions: incubation time: 72 h
Protocol: as §3

BT-549 [43] = test: as above; conditions: incubation time: 72 h
Protocol: as §3

SK-BR-3 [44] = test: as above; conditions: incubation time: 72 h
Protocol: as §3

MDA-MB-436 [45] = test: as above; conditions: incubation time: 72 h
Protocol: as §3

DU-4475 [46] = test: as above; conditions: incubation time: 72 h
Protocol: as §3

CAL-120 [47] = test: as above; conditions: incubation time: 72 h
Protocol: as §3

HCC1599 [48] = test: as above; conditions: incubation time: 72 h
Protocol: as §3

MFM-223 [49] = test: as above; conditions: incubation time: 72 h
Protocol: as §3

HCC1937 [50] = test: as above; conditions: incubation time: 72 h
Protocol: as §3

HCC1143 [51] = test: as above; conditions: incubation time: 72 h
Protocol: as §3

MDA-MB-231 [52] = test: as above; conditions: incubation time: 72 h
Protocol: as §3

BT-474 [53] = test: as above; conditions: incubation time: 72 h
Protocol: as §3

CAL-51 [54] = test: as above; conditions: incubation time: 72 h
Protocol: as §3

`C[C@@H](CN1CC(=O)NC(=O)C1)N1CC(=O)NC(=O)C1` [Dexrazoxane] was tested, and the normalised viability (HDQ-P1 [1]) was 91%, the normalised viability (Hs578T [2]) was 89% and the normalised viability (MDA-MB-453 [3]) was 94.6%. It also gave a normalised viability (CAL-148 [4]) of 85%, a normalised viability (CAL-85-1 [5]) of 110% and a normalised viability (MDA-MB-468 [6]) of 109%. For the same molecule, the normalised viability (BT-549 [7]) was 78.5%, the normalised viability (SK-BR-3 [8]) was 61% and the normalised viability (MDA-MB-436 [9]) was 101%. The normalised viability (DU-4475 [10]) was 110%, the normalised viability (CAL-120 [11]) was 91.8% and the normalised viability (HCC1599 [12]) was 124%. For the same molecule, the normalised viability (MFM-223 [13]) was 93.3%, the normalised viability (HCC1937 [14]) was 103% and the normalised viability (HCC1143 [15]) was 88.6%. It also gave a normalised viability (MDA-MB-231 [16]) of 96.6%, a normalised viability (BT-474 [17]) of 107% and a normalised viability (CAL-51 [18]) of 95.6%. The normalised viability (HDQ-P1 [19]; 3 nM) was 108%, the normalised viability (HDQ-P1 [19]; 30 nM) was 107% and the normalised viability (HDQ-P1 [19]; 100 nM) was 44.3%. The normalised viability (Hs578T [20]; 10 nM) was 87.7%, the normalised viability (Hs578T [20]; 1000 nM) was 88.8% and the normalised viability (Hs578T [20]; 10000 nM) was 92.1%. It also gave a normalised viability (MDA-MB-453 [21]; 3 nM) of 104%, a normalised viability (MDA-MB-453 [21]; 30 nM) of 103% and a normalised viability (MDA-MB-453 [21]; 100 nM) of 101%. For the same molecule, the normalised viability (CAL-148 [22]; 3 nM) was 84.4%, the normalised viability (CAL-148 [22]; 30 nM) was 92.6% and the normalised viability (CAL-148 [22]; 100 nM) was 91.5%. It also gave a normalised viability (CAL-85-1 [23]; 3 nM) of 98.4%, a normalised viability (CAL-85-1 [23]; 30 nM) of 93.7% and a normalised viability (CAL-85-1 [23]; 100 nM) of 96.7%. For the same molecule, the normalised viability (MDA-MB-468 [24]; 10 nM) was 101%, the normalised viability (MDA-MB-468 [24]; 1000 nM) was 97.4% and the normalised viability (MDA-MB-468 [24]; 10000 nM) was 100%. For the same molecule, the normalised viability (BT-549 [25]; 10 nM) was 87.2%, the normalised viability (BT-549 [25]; 1000 nM) was 79.2% and the normalised viability (BT-549 [25]; 10000 nM) was 76.8%. The normalised viability (SK-BR-3 [26]; 10 nM) was 93.8%, the normalised viability (SK-BR-3 [26]; 1000 nM) was 105% and the normalised viability (SK-BR-3 [26]; 10000 nM) was 103%. The normalised viability (MDA-MB-436 [27]; 10 nM) was 91.8%, the normalised viability (MDA-MB-436 [27]; 1000 nM) was 95.8% and the normalised viability (MDA-MB-436 [27]; 10000 nM) was 95.6%. The normalised viability (DU-4475 [28]; 3 nM) was 103%, the normalised viability (DU-4475 [28]; 30 nM) was 97.4% and the normalised viability (DU-4475 [28]; 100 nM) was 104%. It also gave a normalised viability (CAL-120 [29]; 10 nM) of 90.1%, a normalised viability (CAL-120 [29]; 1000 nM) of 100% and a normalised viability (CAL-120 [29]; 10000 nM) of 100%. For the same molecule, the normalised viability (HCC1599 [30]; 10 nM) was 123%, the normalised viability (HCC1599 [30]; 1000 nM) was 93.3% and the normalised viability (HCC1599 [30]; 10000 nM) was 115%. The normalised viability (MFM-223 [31]; 10 nM) was 95.2%, the normalised viability (MFM-223 [31]; 1000 nM) was 91.2% and the normalised viability (MFM-223 [31]; 10000 nM) was 93%. For the same molecule, the normalised viability (HCC1937 [32]; 10 nM) was 99.1%, the normalised viability (HCC1937 [32]; 1000 nM) was 82% and the normalised viability (HCC1937 [32]; 10000 nM) was 92.3%. For the same molecule, the normalised viability (HCC1143 [33]; 10 nM) was 88%, the normalised viability (HCC1143 [33]; 1000 nM) was 94.5% and the normalised viability (HCC1143 [33]; 10000 nM) was 99.6%. The normalised viability (MDA-MB-231 [34]; 10 nM) was 95%, the normalised viability (MDA-MB-231 [34]; 1000 nM) was 96.6% and the normalised viability (MDA-MB-231 [34]; 10000 nM) was 107%. The normalised viability (BT-474 [35]; 10 nM) was 100%, the normalised viability (BT-474 [35]; 1000 nM) was 101% and the normalised viability (BT-474 [35]; 10000 nM) was 114%. The normalised viability (CAL-51 [36]; 3 nM) was 93.9%, the normalised viability (CAL-51 [36]; 30 nM) was 96.1% and the normalised viability (CAL-51 [36]; 100 nM) was 92.8%.

Molecule `N[C@@H](Cc1ccc(N(CCCl)CCCl)cc1)C(=O)O` [Melphalan] (0.099 nM) has a normalised viability (HDQ-P1 [37]) of 107%, a normalised viability (Hs578T [38]) of 93.8% and a normalised viability (MDA-MB-453 [39]) of 97.8%. The normalised viability (CAL-148 [40]) was 112%, the normalised viability (CAL-85-1 [41]) was 85.7% and the normalised viability (MDA-MB-468 [42]) was 102%. For the same molecule, the normalised viability (BT-549 [43]) was 107%, the normalised viability (SK-BR-3 [44]) was 94% and the normalised viability (MDA-MB-436 [45]) was 89.8%. For the same molecule, the normalised viability (DU-4475 [46]) was 99.8%, the normalised viability (CAL-120 [47]) was 82.9% and the normalised viability (HCC1599 [48]) was 96.1%. It also gave a normalised viability (MFM-223 [49]) of 94.3%, a normalised viability (HCC1937 [50]) of 87.2% and a normalised viability (HCC1143 [51]) of 84.7%. It also gave a normalised viability (MDA-MB-231 [52]) of 95.1%, a normalised viability (BT-474 [53]) of 85.2% and a normalised viability (CAL-51 [54]) of 100%.
